The values below are quoted from earlier work in patent US9782454B2 (LONGEVITY BIOTECH, INC., priority 2010, dated 2017).

Non-standard residues stand in square brackets, D forms with d. No end group written: not given here. dPhe(4-Cl) = N[C@H](Cc1ccc(Cl)cc1)C(=O)O

One data set concerns the target mouse CRF2β (Mus musculus, UniProt Q60748). The following applies: read-out: Kd for binding to mouse CRF2β; cited from earlier work.
The target of a further data set is T1, rat CRF1 receptors (Rattus norvegicus, UniProt P35353).
T1 sequence (P35353 24-415): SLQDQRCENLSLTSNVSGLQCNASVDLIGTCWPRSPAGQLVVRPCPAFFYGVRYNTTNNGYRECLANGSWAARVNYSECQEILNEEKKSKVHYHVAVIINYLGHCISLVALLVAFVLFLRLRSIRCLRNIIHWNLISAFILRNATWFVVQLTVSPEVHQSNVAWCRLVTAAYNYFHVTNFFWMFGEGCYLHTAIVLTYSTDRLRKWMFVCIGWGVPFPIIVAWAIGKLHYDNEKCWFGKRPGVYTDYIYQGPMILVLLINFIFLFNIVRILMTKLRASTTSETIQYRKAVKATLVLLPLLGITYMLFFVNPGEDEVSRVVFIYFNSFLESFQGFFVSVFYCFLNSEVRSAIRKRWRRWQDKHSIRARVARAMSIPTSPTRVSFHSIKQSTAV
The settings on record: read-out: Kd for binding to rat CRF1 receptors; cited from earlier work.

In the next data set the target is T2, mCRF2β (Mus musculus, UniProt Q60748).
T2 construct: expressed in transfected cells; host or cells: HEK-mCRF2β cells (value quoted from the literature)
T2 sequence (Q60748 1-431 isoform Q60748-2): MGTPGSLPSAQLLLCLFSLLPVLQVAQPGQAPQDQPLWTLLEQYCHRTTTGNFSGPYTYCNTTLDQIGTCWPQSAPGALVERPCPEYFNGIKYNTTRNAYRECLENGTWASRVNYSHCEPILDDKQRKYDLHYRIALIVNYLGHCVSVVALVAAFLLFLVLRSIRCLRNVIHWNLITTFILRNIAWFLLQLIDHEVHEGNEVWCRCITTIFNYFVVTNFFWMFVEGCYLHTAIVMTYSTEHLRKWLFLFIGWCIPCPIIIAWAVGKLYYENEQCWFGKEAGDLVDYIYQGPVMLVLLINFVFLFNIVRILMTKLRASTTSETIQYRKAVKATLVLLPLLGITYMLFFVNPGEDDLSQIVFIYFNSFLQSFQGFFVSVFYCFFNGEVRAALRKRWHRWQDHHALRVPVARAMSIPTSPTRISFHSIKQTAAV
The settings on record: cited from earlier work.

For another data set, the system named is guinea pig ileum. The following applies: read-out: EC50 for contraction of guinea pig ileum; cited from earlier work.
For a further data set, the target named is T3, neurotensin receptor (Mus musculus, UniProt O88319).
T3 construct: from tissue; host or cells: neonatal mouse brain (value quoted from the literature)
T3 sequence (O88319 whole entry): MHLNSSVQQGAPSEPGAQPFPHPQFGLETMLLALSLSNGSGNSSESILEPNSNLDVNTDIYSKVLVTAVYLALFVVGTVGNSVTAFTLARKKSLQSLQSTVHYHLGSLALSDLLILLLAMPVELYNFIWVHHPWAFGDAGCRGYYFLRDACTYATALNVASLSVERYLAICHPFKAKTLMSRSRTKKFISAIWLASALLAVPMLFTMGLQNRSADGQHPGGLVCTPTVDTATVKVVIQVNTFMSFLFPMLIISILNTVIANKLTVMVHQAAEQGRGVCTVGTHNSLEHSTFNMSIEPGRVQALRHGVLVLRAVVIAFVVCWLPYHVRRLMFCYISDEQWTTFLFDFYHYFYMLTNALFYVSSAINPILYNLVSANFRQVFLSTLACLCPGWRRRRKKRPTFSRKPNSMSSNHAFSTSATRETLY
The following applies: read-out: IC50 for inhibition of {125I}-NT binding to neonatal mouse brain; cited from earlier work.

A further data set addresses neurotensin receptors. The settings on record: read-out: IC50 for inhibition of {Trp11}-NT binding to rat brain receptors; cited from earlier work.
Data set [1] has as its target T4, human calcitonin receptor (Homo sapiens, UniProt P30988).
T4 sequence (P30988 25-474): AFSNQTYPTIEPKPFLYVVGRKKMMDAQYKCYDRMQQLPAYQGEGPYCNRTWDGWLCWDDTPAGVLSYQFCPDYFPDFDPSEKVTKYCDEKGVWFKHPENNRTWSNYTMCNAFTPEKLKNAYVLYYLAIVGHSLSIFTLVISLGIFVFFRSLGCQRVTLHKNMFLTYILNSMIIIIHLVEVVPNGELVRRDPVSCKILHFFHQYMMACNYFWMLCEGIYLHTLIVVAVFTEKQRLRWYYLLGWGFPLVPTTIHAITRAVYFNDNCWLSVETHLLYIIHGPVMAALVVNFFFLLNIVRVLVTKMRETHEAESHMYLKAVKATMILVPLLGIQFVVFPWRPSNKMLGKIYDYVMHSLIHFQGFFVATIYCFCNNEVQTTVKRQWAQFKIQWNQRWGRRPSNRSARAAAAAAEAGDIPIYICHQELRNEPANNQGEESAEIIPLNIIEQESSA
The settings on record: read-out: EC50, agonist for the human calcitonin receptor; cited from earlier work.

In the next data set the target is 14.3.3 proteins. The following applies: read-out: KD, antagonist of 14.3.3 proteins; cited from earlier work.
The target of the next data set is T5, GRF receptors (Homo sapiens, UniProt Q02643).
T5 sequence (Q02643 23-423): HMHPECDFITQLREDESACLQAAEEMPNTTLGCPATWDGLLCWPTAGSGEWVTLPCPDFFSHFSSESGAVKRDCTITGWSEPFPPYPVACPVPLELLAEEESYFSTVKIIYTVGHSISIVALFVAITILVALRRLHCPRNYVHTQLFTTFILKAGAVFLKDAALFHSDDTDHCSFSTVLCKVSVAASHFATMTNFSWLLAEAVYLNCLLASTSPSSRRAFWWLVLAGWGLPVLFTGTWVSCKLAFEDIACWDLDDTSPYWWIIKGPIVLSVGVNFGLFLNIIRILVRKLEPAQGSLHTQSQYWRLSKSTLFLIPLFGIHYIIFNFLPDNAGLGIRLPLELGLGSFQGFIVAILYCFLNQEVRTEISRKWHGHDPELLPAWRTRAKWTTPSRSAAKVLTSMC
The settings on record: cited from earlier work.

A further data set has as its target glucagon receptors (Homo sapiens, UniProt P47871). The settings on record: cited from earlier work.
Data set [2] concerns the target vasoactive intestinal peptide (VIP) receptor. The following applies: read-out: IC50, selective VIP antagonist; cited from earlier work.
The next data set deals with secretin receptors (Homo sapiens, UniProt P47872). The following applies: cited from earlier work.
Chain of secretin receptors (P47872 23-440): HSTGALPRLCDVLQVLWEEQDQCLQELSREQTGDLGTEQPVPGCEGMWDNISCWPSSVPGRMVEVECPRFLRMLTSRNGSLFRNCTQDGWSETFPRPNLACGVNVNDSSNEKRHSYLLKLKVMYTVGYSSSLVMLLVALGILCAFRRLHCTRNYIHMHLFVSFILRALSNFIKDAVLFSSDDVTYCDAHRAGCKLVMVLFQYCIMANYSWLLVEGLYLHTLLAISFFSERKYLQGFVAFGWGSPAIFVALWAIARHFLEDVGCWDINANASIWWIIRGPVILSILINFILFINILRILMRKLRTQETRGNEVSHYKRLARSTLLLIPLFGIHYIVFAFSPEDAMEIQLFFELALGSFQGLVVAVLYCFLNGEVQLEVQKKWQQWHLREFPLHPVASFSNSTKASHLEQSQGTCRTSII

Chain of mouse CRF2β (Q60748 1-431 isoform Q60748-2): as the sequence (Q60748 1-431 isoform Q60748-2) above
Chain of glucagon receptors (P47871 26-477): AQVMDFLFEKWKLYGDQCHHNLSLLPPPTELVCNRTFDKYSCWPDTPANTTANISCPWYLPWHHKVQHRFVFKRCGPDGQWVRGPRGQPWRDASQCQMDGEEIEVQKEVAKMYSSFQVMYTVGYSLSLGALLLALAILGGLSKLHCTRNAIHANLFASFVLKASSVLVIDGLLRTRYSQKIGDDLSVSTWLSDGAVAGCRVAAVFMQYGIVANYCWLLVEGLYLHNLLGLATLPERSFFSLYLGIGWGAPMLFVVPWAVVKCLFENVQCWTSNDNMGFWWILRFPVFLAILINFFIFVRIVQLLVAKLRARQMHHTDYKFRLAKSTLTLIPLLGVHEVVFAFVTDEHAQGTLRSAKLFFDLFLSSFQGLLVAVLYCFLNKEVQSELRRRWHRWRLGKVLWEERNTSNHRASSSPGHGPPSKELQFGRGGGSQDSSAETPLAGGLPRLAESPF

Regarding Antisauvagine-30, the Kd – broadly, the concentration at which binding is half-saturated – on mouse CRF2β was 1.4 nM; on rat CRF1 receptors, 154 nM. Further, on mCRF2β, the “pA2, inhibition of sauvagine-stimulated cAMP accumulation in HEK-mCRF2β cells” value was “sauvagine-stimulated cAMP accumulation in HEK-mCRF2β cells (pA2 = 8.49). Prevents stress-”.
As for JMV 449 (IARRHPYFL; Kinetensin), in the data set with guinea pig ileum, the EC50 (in general, the concentration that produces a half-maximal response) is 1.9 nM. For the same substance, the IC50 – broadly, the concentration needed to halve the response being measured – in the data set with neurotensin receptor is 0.15 nM.
Take “Neuromedin N (rat, mouse, porcine, canine) (KIPYIL; Neuromedin N; UniProt P20068 142-147, looked up)”: the half-inhibitory concentration (IC50) on neurotensin receptors was 16.7 nM.
On to “PHM 27 (human) (HADGVFTSDFSKLLGQLSAKKYLESLM-NH2; UniProt P01282 81-107, looked up)”, for which the EC50 in data set [1] was 11 nM.
Take “R18 (RYVVLPRPVCFEKGMNYTVR; Peptide F9) [Compound R18]”: on 14.3.3 proteins, the Kd is ~80 nM.
On to “{D-p-C1-Phe6,Leu17}-VIP ([dPhe(4-Cl)]TDNYTRLRKQMAVKKYLNSILN-NH2)”, for which, in the data set with GRF receptors, the “activity on GRF receptors” value is reported as “no activity”. Further, the “activity on glucagon receptors” value with glucagon receptors is on record as “no activity”. The IC50 in data set [2] is 126 nM. Also, the “activity on secretin receptors” value in the data set with secretin receptors is recorded as “no activity”.
